Values after ≈ are worked out from the molar mass of the structure shown. Where two headings read alike, the source gives them in different places. Where a SMILES comes first, the peptide text is derived from it. Side-chain parts run from the residue outwards. [ ]: non-standard residue; d: D form. The star is where a group is joined. Lys(α,ε-(ArgTrp)2) = N=C(N)NCCC[C@H](N)C(=O)N[C@@H](Cc1c[nH]c2ccccc12)C(=O)NCCCC[C@H](NC(=O)[C@H](Cc1c[nH]c2ccccc12)NC(=O)[C@@H](N)CCCNC(=N)N)C(=O)*; NHBn = c1ccc(CN*)cc1; OBn = c1ccc(CO*)cc1; X1 = CCCCCCCCCN*; βAla = NCCC(=O)O
Tests used:
[1] = tested on: multi-drug resistant strain S. aureus
[2] = tested on: ampicillin- and streptomycin-resistant E. coli (D31); details: for MIC50 E. coli D31: salt not stated
[3] = tested on: Acinetobacter. baumannii (ATCC BAA-747)
[4] = tested on: B. anthracis (32F2 Sterne)
fresh sheep erythrocytes = test: hemolytic assay; assay type: cell-based; details: sheep erythrocytes, 37° C., 30 minutes
Method: Hemolytic activity of model peptides was assessed on fresh sheep erythrocytes (Fitzgerald Inc., Concord, Mass.). […] The resulting supernatant was diluted by a factor of 40 in distilled water. The absorbances of the supernatant at λ=540 nm (OD540) were measured in the UV Spectrophotometer. […] Hemolytic index (HI) was defined as HI═HD50/IC50.

Compound: CCCCCCCCCNC(=O)CCNC(=O)[C@H](CCCCNC(=O)[C@H](CCCCNC(=O)[C@H](Cc1c[nH]c2ccccc12)NC(=O)[C@@H](N)CCCNC(=N)N)NC(=O)[C@H](Cc1c[nH]c2ccccc12)NC(=O)[C@@H](N)CCCNC(=N)N)NC(=O)[C@H](CCCCNC(=O)[C@H](Cc1c[nH]c2ccccc12)NC(=O)[C@@H](N)CCCNC(=N)N)NC(=O)[C@H](Cc1c[nH]c2ccccc12)NC(=O)[C@@H](N)CCCNC(=N)N [(RW)4D-Nonylamine] (H-RWK([Trp-Arg])K(Lys(α,ε-(ArgTrp)2))[βAla]-X1)
- MIC50 E. coli (E. coli): 15.8 µg/mL (≈ 8.03 µM)
- MIC50 S. aureus ([1]; salt not stated): 21.6 µg/mL
- MIC50 E. coli D31 [2]: 26.7 µg/mL
- MIC50 A. baumannii [3]: 75.2 µg/mL (≈ 38.2 µM)
- MIC50 B. subtilis (B. Subtilis (ATCC 6633); ATCC 6633): 6.5 µg/mL (≈ 3.3 µM)
- MIC50 B. anthracis [4]: 31.8 µg/mL (≈ 16.2 µM)

Compound: Gentamicin [reference compound]
- MIC50 E. faecalis (E. faecalis (29212)): 0.36 µg/mL
- MIC50 S. aureus ([1]; 0 mM NaCl): 51 µg/mL
- MIC50 S. aureus ([1]; 75 mM NaCl): 51 µg/mL
- MIC50 S. aureus ([1]; 150 mM NaCl): 51 µg/mL
- MIC50 E. coli ([2]; 0 mM NaCl): 1.2 µg/mL
- MIC50 E. coli ([2]; 75 mM NaCl): 1.2 µg/mL
- MIC50 E. coli ([2]; 150 mM NaCl): 1.2 µg/mL
- HD50 (peptide concentration corresponding to 50% hemolysis) (fresh sheep erythrocytes): >2000 µg/mL
- MIC50 B. subtilis (B. Subtilis (ATCC 6633)): 0.32 µg/mL
- MIC50 B. anthracis [4]: 3.1 µg/mL

Compound: N=C(N)NCCC[C@H](N)C(=O)N[C@@H](Cc1c[nH]c2ccccc12)C(=O)NCCCC[C@H](NC(=O)[C@H](Cc1c[nH]c2ccccc12)NC(=O)[C@@H](N)CCCNC(=N)N)C(=O)NCCCC[C@H](NC(=O)[C@H](CCCCNC(=O)[C@H](Cc1c[nH]c2ccccc12)NC(=O)[C@@H](N)CCCNC(=N)N)NC(=O)[C@H](Cc1c[nH]c2ccccc12)NC(=O)[C@@H](N)CCCNC(=N)N)C(=O)NCCC(=O)OCc1ccccc1 [(RW)4D-Benzyl ester] (H-RWK([Trp-Arg])K(Lys(α,ε-(ArgTrp)2))[βAla]-OBn)
- MIC50 E. coli (E. coli): 14.3 µg/mL (≈ 7.4 µM)
- MIC50 S. aureus ([1]; salt not stated): 19.6 µg/mL
- MIC50 E. coli D31 [2]: 29.7 µg/mL
- MIC50 A. baumannii [3]: 78.7 µg/mL (≈ 40.7 µM)
- MIC50 B. subtilis (B. Subtilis (ATCC 6633); ATCC 6633): 6.8 µg/mL (≈ 3.52 µM)
- MIC50 B. anthracis [4]: 34.2 µg/mL (≈ 17.7 µM)

Compound: NCCCC[C@H](N)C(=O)N[C@@H](Cc1ccc(O)cc1)C(=O)NCCCC[C@H](NC(=O)[C@H](Cc1ccc(O)cc1)NC(=O)[C@@H](N)CCCCN)C(=O)NCCCC[C@H](NC(=O)[C@H](CCCCNC(=O)[C@H](Cc1ccc(O)cc1)NC(=O)[C@@H](N)CCCCN)NC(=O)[C@H](Cc1ccc(O)cc1)NC(=O)[C@@H](N)CCCCN)C(=O)NCCC(N)=O [Den(KY)4D]
- MIC50 E. coli (E. coli): 84.4 µg/mL (≈ 51.5 µM)
- MIC50 S. aureus ([1]; salt not stated): 240 µg/mL
- MIC50 A. baumannii [3]: 360 µg/mL (≈ 220 µM)

Compound: N=C(N)NCCC[C@H](N)C(=O)N[C@@H](Cc1c[nH]c2ccccc12)C(=O)NCCCC[C@H](NC(=O)[C@H](Cc1c[nH]c2ccccc12)NC(=O)[C@@H](N)CCCNC(=N)N)C(=O)NCCCC[C@H](NC(=O)[C@H](CCCCNC(=O)[C@H](Cc1c[nH]c2ccccc12)NC(=O)[C@@H](N)CCCNC(=N)N)NC(=O)[C@H](Cc1c[nH]c2ccccc12)NC(=O)[C@@H](N)CCCNC(=N)N)C(=O)NCCC(=O)NCc1ccccc1 [(RW)4D-Benzyl amine] (H-RWK([Trp-Arg])K(Lys(α,ε-(ArgTrp)2))[βAla]-NHBn)
- MIC50 E. coli (E. coli): 12.8 µg/mL (≈ 6.62 µM)
- MIC50 S. aureus ([1]; salt not stated): 37.8 µg/mL
- MIC50 E. coli D31 [2]: 21.3 µg/mL
- MIC50 A. baumannii [3]: 121 µg/mL (≈ 62.6 µM)
- MIC50 B. subtilis (B. Subtilis (ATCC 6633); ATCC 6633): 5.0 µg/mL (≈ 2.59 µM)
- MIC50 B. anthracis [4]: 34.8 µg/mL (≈ 18 µM)

Reference: patent publication US7902327B2, “Dendrimeric peptides, pharmaceutical compositions and methods of using the same” (New York University School of Medicine, priority 2007, dated 2011)
